In patent publication US11725036B2, “Modified lipidated relaxin B chain peptides and their therapeutic use” (Sanofi, priority 2018, dated 2023):
Starred links: 1 amine or outer side, 2 acyl side, 3 side chain; linkers in the order of their positions; H or OH if unused. Non-standard residues stand in square brackets, D forms with d. Residues, ends and D or L forms follow the SMILES beside them. Groups on a side chain read outwards from the residue. *: point of attachment. X5 = CCCCCCCCCCCCCCCC(=O)N[C@@H](CCC(=O)N[C@@H](CCC(=O)N[C@@H](CCC(=O)NCCCOCCOCCOCCCNC(=O)CCC(=O)NCCCOCCOCCOCCCNC(=O)CCC(=O)NCCCOCCOCCOCCCNC(=O)CCC(=O)NCCCOCCOCCOCCCN*)C(=O)O)C(=O)O)C(=O)O; X7 = CCCCCCCCCCCCCCCC(=O)N[C@@H](CCC(=O)N[C@@H](CCC(=O)N[C@@H](CCC(=O)NCCCOCCOCCOCCCNC(=O)COCC(=O)NCCCOCCOCCOCCCNC(=O)COCC(=O)NCCCOCCOCCOCCCNC(=O)COCC(=O)*)C(=O)O)C(=O)O)C(=O)O; X3 = CCCCCCCCCCCCCCCCCC(=O)N[C@@H](CCC(=O)N[C@@H](CCC(=O)N[C@@H](CCC(=O)NCCCOCCOCCOCCCNC(=O)CCC(=O)NCCCOCCOCCOCCCNC(=O)CCC(=O)NCCCOCCOCCOCCCN*)C(=O)O)C(=O)O)C(=O)O; X1 = CCCCCCCCCCCCCCCC(=O)N[C@@H](CCC(=O)N[C@@H](CCC(=O)N[C@@H](CCC(=O)NCCCOCCOCCOCCCNC(=O)CCC(=O)NCCCOCCOCCOCCCNC(=O)CCC(=O)NCCCOCCOCCOCCCN*)C(=O)O)C(=O)O)C(=O)O; X6 = CCCCCCCCCCCCCC(=O)N[C@@H](CCC(=O)N[C@@H](CCC(=O)N[C@@H](CCC(=O)NCCCOCCOCCOCCCNC(=O)CCC(=O)NCCCOCCOCCOCCCNC(=O)CCC(=O)NCCCOCCOCCOCCCN*)C(=O)O)C(=O)O)C(=O)O; γGlu = O=C(O)[C@H](CCC(=O)[*:2])N[*:1]; Palmitoyl = CCCCCCCCCCCCCCCC(=O)*; Cit = NC(=O)NCCC[C@H](N)C(=O)O; Suc = O=C(CCC(=O)[*:2])[*:1]; αMeK = C[C@](N)(CCCCN)C(=O)O; AEEA = NCCOCCOCC(=O)O; Aib = CC(C)(N)C(=O)O

Molecular target: T1, RXFP1 (Homo sapiens, UniProt Q9HBX9)
T1 construct: OVCAR5 cells expressing endogenous RXFP1; endogenous in cells; host or cells: OVCAR5
T1 sequence (Q9HBX9 1-757): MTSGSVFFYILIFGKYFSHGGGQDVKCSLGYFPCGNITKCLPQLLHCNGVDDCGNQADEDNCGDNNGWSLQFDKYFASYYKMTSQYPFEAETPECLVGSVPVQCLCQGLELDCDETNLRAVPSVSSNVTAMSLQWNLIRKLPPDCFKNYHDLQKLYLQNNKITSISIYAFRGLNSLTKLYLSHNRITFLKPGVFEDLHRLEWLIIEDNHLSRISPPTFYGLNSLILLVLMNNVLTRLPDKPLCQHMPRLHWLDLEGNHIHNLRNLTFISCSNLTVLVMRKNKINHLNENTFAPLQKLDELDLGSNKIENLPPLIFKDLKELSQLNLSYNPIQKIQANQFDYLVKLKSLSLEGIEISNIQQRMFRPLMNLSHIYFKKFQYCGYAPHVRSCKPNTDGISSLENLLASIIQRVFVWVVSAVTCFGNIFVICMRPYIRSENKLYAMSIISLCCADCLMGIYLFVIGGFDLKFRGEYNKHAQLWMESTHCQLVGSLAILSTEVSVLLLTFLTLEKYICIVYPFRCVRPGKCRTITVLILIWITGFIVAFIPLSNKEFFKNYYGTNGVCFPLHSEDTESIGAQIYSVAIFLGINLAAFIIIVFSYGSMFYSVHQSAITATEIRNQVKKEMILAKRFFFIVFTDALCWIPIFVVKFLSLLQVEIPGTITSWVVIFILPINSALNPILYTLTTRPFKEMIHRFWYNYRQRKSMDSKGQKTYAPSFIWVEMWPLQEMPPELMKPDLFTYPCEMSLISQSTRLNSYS
Assay: OVCAR5 cAMP assay (HTRF)
Format: cell-based
Conditions: for EC50: OVCAR 5 cells expressing endogenous RXFP1, cAMP readout; for Emax: OVCAR 5 cells, maximal cAMP relative to H2-relaxin
Summary of the method: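 Peptide agonism measured as intracellular cAMP (HTRF) after 30 min at 37° C in serum-free medium, following 40 min 1 mM IBMX preincubation of OVCAR5 cells. Nonlinear regression gave EC50; Emax % = 100 × compound maximal cAMP / H2-relaxin maximal cAMP.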

Row | SMILES | EC50 [nM] | Emax [%]
1 | CCCCCCCCCCCCCCCC(=O)N[C@@H](CCC(=O)N[C@@H](CCC(=O)N[C@@H](CCC(=O)NCCCOCCOCCOCCCNC(=O)CCC(=O)NCCCOCCOCCOCCCNC(=O)CCC(=O)NCCCOCCOCCOCCCNC(=O)CCC(=O)NCCCC[C@H](NC(=O)CNC(=O)[C@H](CCC(=O)O)NC(=O)C(C)(C)NC(=O)C(C)(C)NC(=O)[C@@H](NC(=O)[C@H](CCCCNC(C)=O)NC(=O)[C@H](C)NC(=O)[C@H](CCCNC(=N)N)NC(=O)[C@@H](NC(=O)[C@H](CCCCN)NC(=O)[C@H](CCC(=O)O)NC(=O)[C@H](CCCNC(=N)N)NC(=O)CNC(=O)[C@H](CCC(=O)O)NC(=O)[C@H](CC(C)C)NC(C)=O)C(C)C)[C@@H](C)CC)C(=O)N[C@@H](CO)C(=O)N[C@H](C(=O)N[C@@H](Cc1ccccc1)C(=O)N[C@@H](CO)C(=O)NC(C)(C)C(=O)N[C@@H](CCCNC(=N)N)C(=O)N[C@@H](C)C(=O)N[C@@H](CCCCNC(C)=O)C(N)=O)[C@@H](C)O)C(=O)O)C(=O)O)C(=O)O [compound 2] (Ac-LEGREKVRAK(Ac)I[Aib][Aib]EGK([Suc-X1])STFS[Aib]RAK(Ac)-NH2) | 2.4 | 99
2 | CCCCCCCCCCCCCCCC(=O)N[C@@H](CCC(=O)N[C@@H](CCC(=O)N[C@@H](CCC(=O)NCCCOCCOCCOCCCNC(=O)COCC(=O)NCCCOCCOCCOCCCNC(=O)COCC(=O)NCCCOCCOCCOCCCNC(=O)COCC(=O)NCCCC[C@H](NC(=O)CNC(=O)[C@H](CCC(=O)O)NC(=O)C(C)(C)NC(=O)C(C)(C)NC(=O)[C@@H](NC(=O)[C@H](CCCCNC(C)=O)NC(=O)[C@H](C)NC(=O)[C@H](CCCNC(=N)N)NC(=O)[C@@H](NC(=O)[C@H](CCCCN)NC(=O)[C@H](CCC(=O)O)NC(=O)[C@H](CCCNC(=N)N)NC(=O)CNC(=O)[C@H](CCC(=O)O)NC(=O)[C@H](CC(C)C)NC(C)=O)C(C)C)[C@@H](C)CC)C(=O)N[C@@H](CO)C(=O)N[C@H](C(=O)N[C@@H](Cc1ccccc1)C(=O)N[C@@H](CO)C(=O)N[C@@](C)(CCCCN)C(=O)N[C@@H](CCCNC(=N)N)C(=O)N[C@@H](C)C(=O)N[C@@H](CCCCNC(C)=O)C(N)=O)[C@@H](C)O)C(=O)O)C(=O)O)C(=O)O [compound 22] (Ac-LEGREKVRAK(Ac)I[Aib][Aib]EGK(X7)STFS[αMeK]RAK(Ac)-NH2) | 1 | 92
3 | CCCCCCCCCCCCCCCC(=O)N[C@@H](CCC(=O)N[C@@H](CCC(=O)N[C@@H](CCC(=O)NCCOCCOCC(=O)NCCOCCOCC(=O)NCCOCCOCC(=O)NCCOCCOCC(=O)NCCOCCOCC(=O)NCCCC[C@H](NC(=O)CNC(=O)[C@H](CCC(=O)O)NC(=O)C(C)(C)NC(=O)C(C)(C)NC(=O)[C@@H](NC(=O)[C@H](CCCCNC(C)=O)NC(=O)[C@H](C)NC(=O)[C@H](CCCNC(=N)N)NC(=O)[C@@H](NC(=O)[C@H](CCCCN)NC(=O)[C@H](CCC(=O)O)NC(=O)[C@H](CCCNC(=N)N)NC(=O)CNC(=O)[C@H](CCC(=O)O)NC(=O)[C@H](CC(C)C)NC(C)=O)C(C)C)[C@@H](C)CC)C(=O)N[C@@H](CO)C(=O)N[C@H](C(=O)N[C@@H](Cc1ccccc1)C(=O)N[C@@H](CO)C(=O)N[C@@](C)(CCCCN)C(=O)N[C@@H](CCCNC(=N)N)C(=O)N[C@@H](C)C(=O)N[C@@H](CCCCNC(C)=O)C(N)=O)[C@@H](C)O)C(=O)O)C(=O)O)C(=O)O [compound 45] (Ac-LEGREKVRAK(Ac)I[Aib][Aib]EGK([AEEA-AEEA-AEEA-AEEA-AEEA-γGlu-γGlu-γGlu-Palmitoyl])STFS[αMeK]RAK(Ac)-NH2) | 0.45 | 96
4 | CCCCCCCCCCCCCCCCCC(=O)N[C@@H](CCC(=O)N[C@@H](CCC(=O)N[C@@H](CCC(=O)NCCCOCCOCCOCCCNC(=O)CCC(=O)NCCCOCCOCCOCCCNC(=O)CCC(=O)NCCCOCCOCCOCCCNC(=O)CCC(=O)NCCCC[C@H](NC(=O)CNC(=O)[C@H](CCC(=O)O)NC(=O)C(C)(C)NC(=O)C(C)(C)NC(=O)[C@@H](NC(=O)[C@H](CCCNC(N)=O)NC(=O)[C@H](C)NC(=O)[C@H](CCCNC(=N)N)NC(=O)[C@@H](NC(=O)[C@H](CCCCN)NC(=O)[C@H](CCC(=O)O)NC(=O)[C@H](CCCNC(=N)N)NC(=O)CNC(=O)[C@H](CCC(=O)O)NC(=O)[C@H](CC(C)C)NC(C)=O)C(C)C)[C@@H](C)CC)C(=O)N[C@@H](CO)C(=O)N[C@H](C(=O)N[C@@H](Cc1ccccc1)C(=O)N[C@@H](CO)C(=O)N[C@@](C)(CCCCN)C(=O)N[C@@H](CCCNC(=N)N)C(=O)N[C@@H](C)C(=O)N[C@@H](CCCCNC(C)=O)C(N)=O)[C@@H](C)O)C(=O)O)C(=O)O)C(=O)O [compound 56] (Ac-LEGREKVRA[Cit]I[Aib][Aib]EGK([Suc-X3])STFS[αMeK]RAK(Ac)-NH2) | 0.15 | 91

More lines, now with the values ahead:

Row | EC50 [nM] | Emax [%] | SMILES
5 | 0.18 | 99 | CCCCCCCCCCCCCCCC(=O)N[C@@H](CCC(=O)N[C@@H](CCC(=O)N[C@@H](CCC(=O)NCCCOCCOCCOCCCNC(=O)CCC(=O)NCCCOCCOCCOCCCNC(=O)CCC(=O)NCCCOCCOCCOCCCNC(=O)CCC(=O)NCCCOCCOCCOCCCNC(=O)CCC(=O)NCCCC[C@H](NC(=O)CNC(=O)[C@H](CCC(=O)O)NC(=O)C(C)(C)NC(=O)C(C)(C)NC(=O)[C@@H](NC(=O)[C@H](CCCCNC(C)=O)NC(=O)[C@H](C)NC(=O)[C@H](CCCNC(=N)N)NC(=O)[C@@H](NC(=O)[C@H](CCCCN)NC(=O)[C@H](CCC(=O)O)NC(=O)[C@H](CCCNC(=N)N)NC(=O)CNC(=O)[C@H](CCC(=O)O)NC(=O)[C@H](CC(C)C)NC(C)=O)C(C)C)[C@@H](C)CC)C(=O)N[C@@H](CO)C(=O)N[C@H](C(=O)N[C@@H](Cc1ccccc1)C(=O)N[C@@H](CO)C(=O)N[C@@](C)(CCCCN)C(=O)N[C@@H](CCCNC(=N)N)C(=O)N[C@@H](C)C(=O)N[C@@H](CCCCNC(C)=O)C(N)=O)[C@@H](C)O)C(=O)O)C(=O)O)C(=O)O [compound 78] (Ac-LEGREKVRAK(Ac)I[Aib][Aib]EGK([Suc-X5])STFS[αMeK]RAK(Ac)-NH2)
6 | 1.8 | 91 | CCCCCCCCCCCCCC(=O)N[C@@H](CCC(=O)N[C@@H](CCC(=O)N[C@@H](CCC(=O)NCCCOCCOCCOCCCNC(=O)CCC(=O)NCCCOCCOCCOCCCNC(=O)CCC(=O)NCCCOCCOCCOCCCNC(=O)CCC(=O)NCCCC[C@H](NC(=O)CNC(=O)[C@H](CCC(=O)O)NC(=O)C(C)(C)NC(=O)C(C)(C)NC(=O)[C@@H](NC(=O)[C@H](CCCCNC(C)=O)NC(=O)[C@H](C)NC(=O)[C@H](CCCNC(=N)N)NC(=O)[C@@H](NC(=O)[C@H](CCCCN)NC(=O)[C@H](CCC(=O)O)NC(=O)[C@H](CCCNC(=N)N)NC(=O)CNC(=O)[C@H](CCC(=O)O)NC(=O)[C@H](CC(C)C)NC(C)=O)C(C)C)[C@@H](C)CC)C(=O)N[C@@H](CO)C(=O)N[C@H](C(=O)N[C@@H](Cc1ccccc1)C(=O)N[C@@H](CO)C(=O)N[C@@](C)(CCCCN)C(=O)N[C@@H](CCCNC(=N)N)C(=O)N[C@@H](C)C(=O)N[C@@H](CCCCNC(C)=O)C(N)=O)[C@@H](C)O)C(=O)O)C(=O)O)C(=O)O [compound 95] (Ac-LEGREKVRAK(Ac)I[Aib][Aib]EGK([Suc-X6])STFS[αMeK]RAK(Ac)-NH2)
7 | 0.3 | 95 | CCCCCCCCCCCCCCCC(=O)N[C@@H](CCC(=O)N[C@@H](CCC(=O)N[C@@H](CCC(=O)NCCCOCCOCCOCCCNC(=O)CCC(=O)NCCCOCCOCCOCCCNC(=O)CCC(=O)NCCCOCCOCCOCCCNC(=O)CCC(=O)NCCCC[C@H](NC(=O)CNC(=O)[C@H](CCC(=O)O)NC(=O)[C@@H](NC(=O)C(C)(C)NC(=O)[C@@H](NC(=O)[C@H](CCCCNC(C)=O)NC(=O)[C@H](C)NC(=O)[C@H](CCCNC(=N)N)NC(=O)[C@@H](NC(=O)[C@H](CCCCN)NC(=O)[C@H](CCC(=O)O)NC(=O)[C@H](CCCNC(=N)N)NC(=O)CNC(=O)[C@H](CCC(=O)O)NC(=O)C(C)(C)NC(C)=O)C(C)C)[C@@H](C)CC)[C@@H](C)CC)C(=O)N[C@@H](CO)C(=O)N[C@H](C(=O)N[C@@H](Cc1ccccc1)C(=O)N[C@@H](CO)C(=O)N[C@@](C)(CCCCN)C(=O)N[C@@H](CCCNC(=N)N)C(=O)N[C@@H](C)C(=O)N[C@@H](CCCCNC(C)=O)C(N)=O)[C@@H](C)O)C(=O)O)C(=O)O)C(=O)O [compound 86] (Ac-[Aib]EGREKVRAK(Ac)I[Aib]IEGK([Suc-X1])STFS[αMeK]RAK(Ac)-NH2)
